US20230203081A1, “LINCOSAMIDE ANTIBIOTICS AND USES THEREOF” (President and Fellows of Harvard College, priority 2020, published 2023)
Converted amounts (≈) assume the structure as drawn.

Columns and labels:
Format in all cases: cell-based
S. pneumoniae ATCC 49619 = experiment: MIC (broth microdilution or agar dilution, CLSI); details: Streptococcus pneumoniae, ATCC49619, S. pneumoniae HAV#003, ATCC 49619; read-out: MIC
Outline: (§1)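 Inoculum for broth microdilution was 5×10^5 CFU/mL final, prepared from overnight 35° C blood-agar subcultures (separate handling for streptococcal and anaerobic strains); MICs read by CLSI broth microdilution or agar dilution.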

[1] = test system: S. aureus ATCC BAA-1707 (MRSA); experiment: MIC (broth microdilution or agar dilution, CLSI); details: Staphylococcus aureus
Outline: as §1

E. coli LptD = experiment: MIC (broth microdilution or agar dilution, CLSI); details: Escherichia coli, E. coli HAV#040; LptD; read-out: MIC
Outline: as §1

[2] = test system: E. faecalis MMX 847; cErmB; experiment: MIC (broth microdilution or agar dilution, CLSI); details: Enterococcus faecalis; E. faecalis HAV#036, MMX 847; mac-resistant, cErmB; read-out: MIC
Outline: as §1

S. aureus ATCC 29213 = experiment: MIC (broth microdilution or agar dilution, CLSI); details: Staphylococcus aureus, ATCC29213, S. aureus HAV#001, ATCC 29213, MP-549; read-out: MIC
Outline: as §1

[3] = test system: S. pneumoniae MMX 3028 cErmB; experiment: MIC (broth microdilution or agar dilution, CLSI); details: Streptococcus pneumoniae, MMX3028CERMB; S. pneumoniae HAV#033; MMX 3028, cErmB; read-out: MIC
Outline: as §1

[4] = test system: S. pneumoniae MMX 3031 cMefA; experiment: MIC (broth microdilution or agar dilution, CLSI); details: Streptococcus pneumoniae, MMX3031CMEFA, S. pneumoniae HAV#034; MMX 3031, cMefA; read-out: MIC
Outline: as §1

S. pneumoniae ATCC 6303 = experiment: MIC (broth microdilution or agar dilution, CLSI); details: Streptococcus pneumoniae, ATCC6303; S. pneumoniae HAV#351, ATCC 6303; read-out: MIC
Outline: as §1

S. aureus ATCC 700699 = experiment: MIC (broth microdilution or agar dilution, CLSI); details: Staphylococcus aureus; S. aureus HAV#202, ATCC 700699 (VISA); read-out: MIC
Outline: as §1

K. pneumoniae ATCC 10031 = experiment: MIC (broth microdilution or agar dilution, CLSI); details: Klebsiella pneumoniae, ATCC10031
Outline: as §1

S. aureus MMX 3035 cErmA = experiment: MIC (broth microdilution or agar dilution, CLSI); details: Staphylococcus aureus, MMX3035CERMA; S. aureus HAV#031, MMX 3035; cErmA; read-out: MIC
Outline: as §1

S. aureus hVISA = experiment: MIC (broth microdilution or agar dilution, CLSI); details: Staphylococcus aureus; S. aureus HAV#204, hVISA; read-out: MIC
Outline: as §1

[5] = test system: S. pyogenes MMX 946; cErmB; experiment: MIC (broth microdilution or agar dilution, CLSI); details: Streptococcus pyogenes; S. pyogenes HAV#035, MMX 946; cErmB, mac-resistant; read-out: MIC
Outline: as §1

E. faecalis ATCC 29212 = experiment: MIC (broth microdilution or agar dilution, CLSI); details: Enterococcus faecalis, ATCC29212, E. faecalis HAV#005, ATCC 29212; read-out: MIC
Outline: as §1

S. aureus BAA 977 iErmA = experiment: microbe, parasite or virus in culture; details: Staphylococcus aureus, BAA-977 / MRSA
Outline: as §1

E. coli armA = experiment: microbe, parasite or virus in culture; details: Escherichia coli, E. coli HAV#056; Clinical, armA
Outline: as §1

S. aureus MP-549 msrA = experiment: microbe, parasite or virus in culture; details: Staphylococcus aureus, MP549MSRA; S. aureus HAV#032, MP-549; MSR(A); read-out: MIC
Outline: as §1

[6] = test system: broad panel of different clinical isolates; experiment: microbe, parasite or virus in culture
Outline: as §1

E. coli ΔTolC = experiment: microbe, parasite or virus in culture; details: Escherichia coli, E. coli HAV#038; ΔTolC
Outline: as §1

C[C@H]1COc2c(N3CCN(C)CC3)c(F)cc3c(=O)c(C(=O)O)cn1c23 [Levofloxacin]
MIC (S. pneumoniae ATCC 49619): 1 µg/mL (≈ 2.77 µM)
MIC [1]: > 128 µg/mL
MIC (E. coli LptD): ≤ 0.06 µg/mL
MIC [2]: > 64 µg/mL
MIC (S. aureus ATCC 29213): 0.25 µg/mL (≈ 0.692 µM)
MIC [3]: 0.5 µg/mL (≈ 1.38 µM)
MIC [4]: 0.5 µg/mL (≈ 1.38 µM)
MIC (S. pneumoniae ATCC 6303): 0.5 µg/mL (≈ 1.38 µM)
MIC (S. aureus ATCC 700699): 32 µg/mL (≈ 88.6 µM)
MIC (K. pneumoniae ATCC 10031): ≤ 0.03 µg/mL
MIC (S. aureus MMX 3035 cErmA): 4 µg/mL (≈ 11.1 µM)
MIC (S. aureus hVISA): 8 µg/mL (≈ 22.1 µM)
MIC [5]: 0.5 µg/mL (≈ 1.38 µM)
MIC (E. faecalis ATCC 29212): 2 µg/mL (≈ 5.53 µM)
MIC (S. aureus BAA 977 iErmA): 0.5 µg/mL (≈ 1.38 µM)
MIC (E. coli armA): ≤ 0.06 µg/mL
MIC (S. aureus MP-549 msrA): 1 µg/mL (≈ 2.77 µM)
MIC ([6]; Acinetobacter baumannii, A. baumannii HAV#651, Clinical): 0.125 µg/mL (≈ 0.346 µM)
MIC ([6]; Acinetobacter baumannii, A. baumannii HAV#652 Clinical): 1 µg/mL (≈ 2.77 µM)
MIC ([6]; Acinetobacter baumannii, A. baumannii HAV#653, Clinical): 0.25 µg/mL (≈ 0.692 µM)
MIC ([6]; Acinetobacter baumannii, A. baumannii HAV#654, Clinical): 0.125 µg/mL (≈ 0.346 µM)
MIC ([6]; Acinetobacter baumannii, A. baumannii HAV#655, Clinical): 0.5 µg/mL (≈ 1.38 µM)
MIC ([6]; Acinetobacter baumannii, A. baumannii HAV#656, Clinical): 32 µg/mL (≈ 88.6 µM)
MIC ([6]; Acinetobacter baumannii, A. baumannii HAV#657, Clinical): 0.5 µg/mL (≈ 1.38 µM)
MIC ([6]; Acinetobacter baumannii, A. baumannii HAV#658, Clinical): 0.25 µg/mL (≈ 0.692 µM)
MIC ([6]; Acinetobacter baumannii, A. baumannii HAV#659, Clinical): 16 µg/mL (≈ 44.3 µM)
MIC ([6]; Acinetobacter baumannii, A. baumannii HAV#660, Clinical): 64 µg/mL (≈ 177 µM)
MIC ([6]; Acinetobacter baumannii, A. baumannii HAV#661, Clinical): 0.125 µg/mL (≈ 0.346 µM)
MIC ([6]; Acinetobacter baumannii, A. baumannii HAV#662, Clinical): 8 µg/mL (≈ 22.1 µM)
MIC ([6]; Acinetobacter baumannii, A. baumannii HAV#663, Clinical): 0.25 µg/mL (≈ 0.692 µM)
MIC ([6]; Acinetobacter baumannii, A. baumannii HAV#664, Carbapenem R): 64 µg/mL (≈ 177 µM)
MIC ([6]; Enterococcus faecalis, E. faecalis HAV#602, Clincal): 1 µg/mL (≈ 2.77 µM)
MIC ([6]; Enterococcus faecalis, E. faecalis HAV#607, Clinical): 64 µg/mL (≈ 177 µM)
MIC ([6]; Enterococcus faecalis, E. faecalis HAV#608, Clinical): 64 µg/mL (≈ 177 µM)
MIC ([6]; Enterococcus faecalis, E. faecalis HAV#609, Clinical): 32 µg/mL (≈ 88.6 µM)
MIC ([6]; Enterococcus faecalis, E. faecalis HAV#610, Clinical): 8 µg/mL (≈ 22.1 µM)
MIC ([6]; Enterococcus faecalis, S. faecalis 5060, Line R & Vanco R): 64 µg/mL (≈ 177 µM)
MIC ([6]; Enterococcus faecalis, S. faecalis 5074, Line R): 8 µg/mL (≈ 22.1 µM)
MIC ([6]; Enterococcus faecalis, VRE, E. faecalis HAV#251, Clinical VRE): 2 µg/mL (≈ 5.53 µM)
MIC ([6]; Enterococcus faecalis, VRE, E. faecalis HAV#606, Clinical): 128 µg/mL (≈ 354 µM)
MIC ([6]; Enterococcus faecium, E. faecium HAV#317, Clinical): 2 µg/mL (≈ 5.53 µM)
MIC ([6]; Enterococcus faecium, E. faecium HAV#324, Clinical): > 128 µg/mL
MIC ([6]; Enterococcus faecium, E. faecium HAV#327, Clinical): 4 µg/mL (≈ 11.1 µM)
MIC ([6]; Enterococcus faecium, E. faecium HAV#328, Clinical): 128 µg/mL (≈ 354 µM)
MIC ([6]; Enterococcus faecium, E. faecium HAV#329, Clinical): 128 µg/mL (≈ 354 µM)
MIC ([6]; Enterococcus faecium, VRE, E. faecium HAV#319, Line R & Vanco R): 128 µg/mL (≈ 354 µM)
MIC ([6]; Enterococcus faecium, VRE, E. faecium HAV#320, Clinical): 4 µg/mL (≈ 11.1 µM)
MIC ([6]; Escherichia coli, E. coli HAV#501, Clinical): 32 µg/mL (≈ 88.6 µM)
MIC ([6]; Escherichia coli, E. coli HAV#503, Clinical): 64 µg/mL (≈ 177 µM)
MIC ([6]; Escherichia coli, E. coli HAV#511, Clinical): 4 µg/mL (≈ 11.1 µM)
MIC ([6]; Escherichia coli, E. coli HAV#512, Clinical): < 0.06 µg/mL
MIC ([6]; Escherichia coli, E. coli HAV#513, Clinical): 2 µg/mL (≈ 5.53 µM)
MIC ([6]; Escherichia coli, E. coli HAV#514, Clinical): < 0.06 µg/mL
MIC ([6]; Escherichia coli, E. coli HAV#516, ESBL-producing): 16 µg/mL (≈ 44.3 µM)
MIC ([6]; Haemophilus influenzae, ATCC9007, H. influenzae HAV#376, ATCC-9007): 0.03 µg/mL (≈ 0.083 µM)
MIC ([6]; Klebsiella pneumoniae, K. pneumoniae HAV#041, Clinical, KPC): 64 µg/mL (≈ 177 µM)
MIC ([6]; Klebsiella pneumoniae, K. pneumoniae HAV#404, Clinical): 1 µg/mL (≈ 2.77 µM)
MIC ([6]; Klebsiella pneumoniae, K. pneumoniae HAV#405, Clinical): 1 µg/mL (≈ 2.77 µM)
MIC ([6]; Klebsiella pneumoniae, K. pneumoniae HAV#406, Clinical): 0.125 µg/mL (≈ 0.346 µM)
MIC ([6]; Klebsiella pneumoniae, K. pneumoniae HAV#407, Clinical): > 128 µg/mL
MIC ([6]; Klebsiella pneumoniae, K. pneumoniae HAV#408, Clinical): 1 µg/mL (≈ 2.77 µM)
MIC ([6]; Klebsiella pneumoniae, K. pneumoniae HAV#409, ESBL-producing): 0.5 µg/mL (≈ 1.38 µM)
MIC ([6]; Staphylococcus aureus, MRSA, S. aureus HAV#0107, MRSA Col(Colindale, England)): 1 µg/mL (≈ 2.77 µM)
MIC ([6]; Staphylococcus aureus, MRSA, S. aureus HAV#218, Line R): 0.25 µg/mL (≈ 0.692 µM)
MIC ([6]; Staphylococcus aureus, MRSA, S. aureus HAV#220, Line R): 64 µg/mL (≈ 177 µM)
MIC ([6]; Staphylococcus aureus, MSSA, S. aureus HAV#219, Line R): 0.25 µg/mL (≈ 0.692 µM)
MIC ([6]; Staphylococcus aureus, S. aureus HAV#051, mecA, norA, spcl, ermA, aad1, aac6′-aph2″): 0.5 µg/mL (≈ 1.38 µM)
MIC ([6]; Staphylococcus aureus, S. aureus HAV#052, mecA, norA, fosB, blaZ): 1 µg/mL (≈ 2.77 µM)
MIC ([6]; Staphylococcus aureus, S. aureus HAV#053 mecA, norA, fosB): 0.5 µg/mL (≈ 1.38 µM)
MIC ([6]; Staphylococcus aureus, S. aureus HAV#054, mecA, norA, spcl, aad1, fosB, ermA, aac6′-aph2″, blaZ): 32 µg/mL (≈ 88.6 µM)
MIC ([6]; Staphylococcus aureus, S. aureus HAV#212, Clinical): 0.25 µg/mL (≈ 0.692 µM)
MIC ([6]; Staphylococcus aureus, S. aureus HAV#213, Clinical): 2 µg/mL (≈ 5.53 µM)
MIC ([6]; Staphylococcus aureus, S. aureus HAV#214, Clinical): 0.25 µg/mL (≈ 0.692 µM)
MIC ([6]; Staphylococcus aureus, S. aureus HAV#215, Clinical): 0.25 µg/mL (≈ 0.692 µM)
MIC ([6]; Staphylococcus aureus, S. aureus HAV#217, cfr): 2 µg/mL (≈ 5.53 µM)
MIC ([6]; Staphylococcus aureus, VISA, S. aureus HAV#203, Clinical (VISA)): 8 µg/mL (≈ 22.1 µM)
MIC ([6]; Staphylococcus epidermidis, S. epidermidis HAV# 275 Clinical, cfr): 16 µg/mL (≈ 44.3 µM)
MIC ([6]; Staphylococcus epidermidis, S. epidermidis HAV# 276, cfr): 128 µg/mL (≈ 354 µM)
MIC ([6]; Staphylococcus epidermidis, S. epidermidis HAV#277, Line R): > 128 µg/mL
MIC ([6]; Staphylococcus epidermidis, S. epidermidis HAV#278 Line R): 16 µg/mL (≈ 44.3 µM)
MIC ([6]; Staphylococcus epidermidis, S. epidermidis HAV#279, Line R): 8 µg/mL (≈ 22.1 µM)
MIC ([6]; Staphylococcus haemolyticus, S. haemolyticus 5052, Line R & Methicillin R): 8 µg/mL (≈ 22.1 µM)
MIC ([6]; Streptococcus pneumoniae, ATCC700673, S. pneumoniae HAV#352, ATCC 700673, MDR): 0.5 µg/mL (≈ 1.38 µM)
MIC ([6]; Streptococcus pneumoniae, ATCCBAA255, S. pneumoniae HAV#354, ATCC-BAA-255): 0.25 µg/mL (≈ 0.692 µM)
MIC ([6]; Streptococcus pneumoniae, ATCCBAA334, S. pneumoniae HAV#353, ATCC-BAA-334): 0.5 µg/mL (≈ 1.38 µM)
MIC ([6]; Streptococcus pneumoniae, S. pneumoniae HAV#356, Clinical): 0.25 µg/mL (≈ 0.692 µM)
MIC ([6]; Streptococcus pneumoniae, S. pneumoniae HAV#358, Clinical): 0.25 µg/mL (≈ 0.692 µM)
MIC (E. coli ΔTolC): ≤ 0.06 µg/mL
